Entries after “also recorded” stand apart in the source; their conditions may differ.
Tested on: antibodies in the Q1 and Q3 plasma (patient Q)
Assay: ELISA on Q1 and Q3 specific 12-mer peptides reacted with Q1 and Q3 plasma
Type: binding, human
Settings: for binding of plasma to the peptide versus background binding to a panel of 12 randomly chosen control peptides (Student's Test): Q1/Q3 plasma
Description: Polystyrene plates (Nunc immuno plate maxisorb F96) were coated with streptavidin by incubating overnight at 4° C. with 0.1 ml/well of a 5 μg/ml solution of streptavidin (Sigma Cat. No. S4762) in 0.1 M carbonate buffer at pH 9.6. After removal of the streptavidin solution, the wells were washed four times with a 0.1% solution of Tween 20 in PBS. Nonspecific binding was blocked by incubating each well with 0.2 ml of 2% BSA in PBS for 1 h at 20° C. The wells were again washed four times with PBS/Tween 20. Plates were air-dried and stored at 4° C. until required. The streptavidin in each well was coupled to cleaved peptides by incubation with 100 μl of a 1:100 dilution of cleaved peptide solution with 0.1% BSA in PBS containing 0.1% sodium azide for 1 h at 20° C. After incubation, the plate was washed four times with PBS/Tween 20. Each well was incubated with 100 μl of a suitable dilution of serum (diluted with 2% BSA in PBS containing 0.1% sodium azide) for 1 h at 20° C. or overnight at 4° C. followed by four washes with PBS/Tween 20. Bound antibody was detected by reaction for 1 h at 20° C. in 0.1 ml conjugate. This consisted of 0.25 ml/l (a saturating level) of horseradish peroxidase-labeled goat anti-rabbit IgG (H+L) (Kirkegaard and Perry Labs, Gaithersburg, Md.) in CASS (0.1% sheep serum, 0.1% Tween 20, 0.1% sodium caseinate diluted in 0.1M PBS, pH 7.2). The wells were washed 2 times with PBS/Tween 20 followed by two washes with PBS only. The presence of enzyme was detected by reaction for 45 min at 20° C. with 0.1 ml of a freshly-prepared solution containing 50 mg of ammonium 2,2'azino-bis[3-ethylbenzothiazoline-6-sulphonate (ABTS, Boehringer Mannheim Cat. no. 122661) and 0.03 ml of 35% (w/w) hydrogen peroxide solution in 100 ml of 0.1 M phosphate/0.08 M citrate buffer, pH 4.0. Color development was measured in a Titertek Multiscan MC plate reader in the dual wavelength mode at 405 nm against a reference wavelength of 492 nm.
To examine the effect of the amino acid substitutions observed in the Q1 and Q3 E2 HV domains on antibody binding, we synthesized a Q1 and Q3 specific 12-mer peptide from amino acids 396 to 407 (HVE Q1 or Q3 in FIG. 7B) and separately reacted the Q1 and Q3 plasma with each peptide in an ELISA.

Sequence	binding of plasma to the peptide versus background binding to a panel of 12 randomly chosen control peptides (Student's Test)	Elisa Results on 12-mer Peptides, Mean (Q1 plasma)	Elisa Results on 12-mer Peptides, Mean (Q3 plasma)	reaction of antibodies in patient Q plasma with the peptide in ELISA (Q1 and Q3 plasma, peptides amino acids 396-407)
TAGFVRLFETGP [Q3 peptide, Q3 specific 12-mer peptide from amino acids 396 to 407 of the HCV E2/NS1 HV domain]	not statistically significant	0.691	0.693	
TARFAGFFQSGA [Q1 peptide, Q1 specific 12-mer peptide from amino acids 396 to 407 of the HCV E2/NS1 HV domain]	significantly above background binding	1.158	1.022	reacted with the Q1 peptide; also recorded: developed an antibody response to the Q1 peptide

From patent US6303292A, “Immunoreactive polypeptide compositions” (Chiron Corporation, priority 1998, dated 2001)
